According to patent publication US9540307B2, “Statins of omega-3 polyunsaturated acids for treating hypercholesterolemia” (Jiva Pharma, Inc., priority 2014, dated 2017):
Where a name gives a salt, the structure may show the parent alone.

Molecular target: T1, soluble catalytic domain fragment of human HMG reductase (Homo sapiens, UniProt P04035)
T1 construct: composed of insoluble transmembrane segment and soluble catalytic domain; purchased Sigma-Aldrich CS 1090
T1 sequence (P04035 340-888 limits assumed): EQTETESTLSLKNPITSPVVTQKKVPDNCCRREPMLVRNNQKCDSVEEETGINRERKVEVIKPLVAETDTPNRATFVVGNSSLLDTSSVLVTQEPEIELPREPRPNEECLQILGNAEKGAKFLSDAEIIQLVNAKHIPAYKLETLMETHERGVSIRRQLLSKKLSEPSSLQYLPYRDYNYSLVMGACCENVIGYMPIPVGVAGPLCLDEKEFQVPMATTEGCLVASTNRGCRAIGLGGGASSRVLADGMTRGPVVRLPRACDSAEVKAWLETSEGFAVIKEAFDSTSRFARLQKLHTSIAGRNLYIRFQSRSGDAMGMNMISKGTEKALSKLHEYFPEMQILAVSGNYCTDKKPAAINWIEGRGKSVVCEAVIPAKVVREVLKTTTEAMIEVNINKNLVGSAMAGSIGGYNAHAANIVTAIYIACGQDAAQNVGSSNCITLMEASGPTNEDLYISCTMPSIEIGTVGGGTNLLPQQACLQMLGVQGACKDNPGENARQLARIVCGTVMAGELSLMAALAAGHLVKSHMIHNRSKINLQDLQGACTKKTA
Assay: HMG-Co-A reductase inhibition activity, dose-response curves (Sigma-Aldrich assay kit, absorbance at 340 nm)
Format: biochemical
Details: for IC50: NADP(H) 250 μM, sub-saturating NADP(H) and coenzyme A, decrease in absorbance at 340 nm, read-out: IC50 μM error; for Hill coefficient: fit of the dose-response curve; for potency relative to pravastatin in inhibiting HMG-CO-A-reductase enzyme: fraction of the potency of pravastatin
From the text: SigmaAldrich. […] In: catalog number CS 1090. […].com/catalog/product/[…]®ion=HR. […] Holdgate G, Ward […]. […] Louis-Flamberg […], Bryan D L, Leber J, Elliott […] et al. […], Buchanan […]. Crystal structure of the catalytic portion of human HMG-CoA reductase: insights into regulation of activity and catalysis. […] Motulsky H, Christopoulos A. Fitting Models to Biological Data Using Linear and Nonlinear Regression: A Practical Guide to Curve Fitting Oxford University Press, USA; 1 edition 2004. […] Briefly, the dose-response curves have been measured using soluble catalytic domain fragment of human HMG reductase. […] The activity was measured by following decrease in a sample's absorbance at 340 nm caused by enzymatic oxidation of NADP(H) in presence of coenzyme A. […] NADP(H) concentration in the assay mix was adjusted to 250 μM. […] Stock solutions of Na salts of EPA-statin, ALA-statin were prepared in assay buffer in concentration of 50 mM, and subsequently diluted to lower concentrations in the same buffer as needed.

Row | SMILES | IC50 [µM] | Hill coefficient | potency relative to pravastatin in inhibiting HMG-CO-A-reductase enzyme
1 | CC/C=C\C/C=C\C/C=C\CCCCCCC[C@@H](O)C[C@@H](O)CC(=O)O [ALA-statin, Na salt, Sodium (3R,5R,13Z,16Z,19Z)-3,5-dihydroxydocosa-13,16,19-trienoate] | 25 ± 7 | 1.3 ± 0.3 | about 1/20
2 | CC/C=C\C/C=C\C/C=C\C/C=C\C/C=C\CCC[C@@H](O)C[C@@H](O)CC(=O)[O-].[Na+] [EPA-statin, Na salt, Sodium (3R,5R,9Z,12Z,15Z,18Z,21Z)-3,5-dihydroxytetracosa-9,12,15,18,21-pentaenoate] | 94 ± 8 | 1.6 ± 0.6 | about 1/100
